Holding throughout (assay): antifungal (yeast) sensitivity, inhibitor dilution assay in microtiter format
Details in all cases: YNB/G, lowest concentration to prevent growth, 24 to 48 hours, 35° C., read-out: Minimum Inhibitory Concentration

One test relates to C. tropicalis MY1012. In kind it is cell-based, Candida tropicalis. The procedure: (§1) The compounds are particularly active towards filamentous fungi and yeasts including Candida albicans and Cryptococcus neoformans. The sensitivity of filamentous fungi and yeast was determined using inhibitor dilution assays in microtiter format. The compounds were dissolved in DMSO at 2 mg/ml and serially diluted in 0.1M phosphate buffer, pH 7.0 in the microtiter dish from 100 to 0.006 μg/ml. A standardized spore suspension for testing the filamentous fungi was prepared by inoculating Antibiotic Medium #3 containing 1.5% agar with spores such that 1.5×10^3 colony forming units were added per well. The microtiter wells were filled with 50 μl of buffer containing compound and 50 μl of inoculated medium.
(§2) The sensitivity of yeasts was determined by inoculating yeast nitrogen base containing 1% dextrose (YNB/G) with aliquots of an overnight yeast culture grown in Yeast Morphology (YM) media at 35° C. and diluting in YNB/G to yield a final concentration of 1.5-7.5×10^3 colony forming units/well. To test the sensitivity of yeast, compound was solubilized in 10 percent aqueous DMSO at 2.56 mg/ml. The compound was diluted serially in YNB/G from 128 to 0.06 μg/ml and further diluted 1:10 in YNB/G. The wells were filled with 150 μl of media containing drug. […]

In the next test the test system is C. parapsilosis MY1010. In kind it is cell-based, Candida parapsilosis. The procedure:
as §1, §2

The next test deals with Crypt. neoformans MY1051. It counts as cell-based, Cryptococcus neoformans. The method, then:
as §1, §2

In brackets after ≈: the same amount, converted by molar mass.

Take `CC(=O)OC(CCCC12OC(C(=O)O)C(O)(C(=O)O)C(C(=O)O)(O1)C(OC(=O)CCC=CC(C)CCCc1ccccc1)C2O)C(C)Cc1ccccc1` (stereo not drawn) [Compound A]: the MIC in the test with C. tropicalis MY1012 came out at 8 µg/mL (≈ 10.6 µM); in the test with C. parapsilosis MY1010, 8 µg/mL (≈ 10.6 µM); with Crypt. neoformans MY1051, 1 µg/mL (≈ 1.32 µM).

(Values after patent US5102907A, “Novel squalene synthetase inhibitors” (Merck & Co., Inc., priority 1990, dated 1992).)
